Key:
IL-1 β = experiment: Cardiac inflammatory cytokine IL-1β levels after MI; format: in vivo, rat; conditions: epicardial RTX during MI; 1 day or 1 week after MI
Description: (§1) This example illustrates local anti-inflammatory effects of RTX in the infarcted heart. Myocardial ischemia causes the production and release of several metabolites including bradykinin, prostaglandins and protons that stimulate cardiac sympathetic afferent nerve endings leading to increases in BP, HR and sympathetic nerve activity. As cardiac TRPV1-expressing sympathetic afferents also subserve a “dual sensory-efferent” function and release pro-inflammatory neuropeptides, we hypothesized that plasma extravasation and cardiac neuroinflammation follows myocardial ischemia. […] Inflammation in the infarct area may be due to tissue death whereas in peri-infarct and remote areas may be due to cardiac sympathetic afferent mediated neuroinflammation. This may explain why RTX prevented cardiac inflammation in non-infarct areas to a greater extent than in the infarct area.

[1] = tested on: infarcted heart / CSAR activation; experiment: Cardiac plasma extravasation (Evans Blue area); format: in vivo, rat
Description: as §1

[2] = tested on: sham and CHF rats (coronary artery ligation); experiment: Hemodynamic, morphological and echocardiographic measurements in sham and CHF rats; format: in vivo, rat; conditions: for DAP: diastolic arterial pressure; for HR: heart rate; for HW/BW: heart weight/body weight; for LVEDP: left ventricle end-diastolic pressure; for MAP: mean arterial pressure; for SAP: systolic arterial pressure; for WLW/BW: wet lung weight/body weight
Procedure: In order to desensitize cardiac sympathetic afferents in rats, resiniferatoxin (RTX, 1 mg; Sigma Aldrich) was dissolved in 2 ml of ethanol and mixed with 18 ml of Tween in isotonic saline. RTX (50 μg/ml) was applied twice on the entire left and right ventricles with a swab just prior to coronary ligation. The dose of RTX was determined by preliminary experiments in which we found nearly complete ablation of TRPV1-expressing cardiac nerve endings on the surface of the rat heart for more than 10 weeks. Rat surgery was performed 9-11 weeks post-MI. Rats were anesthetized with urethane (800 mg/kg ip) and α-chloralose (40 mg/kg ip). Renal sympathetic nerve activity (RSNA) and cardiac sympathetic nerve activity (CSNA) were recorded for evaluating basal renal and cardiac sympathetic tone.
More specifically, we examined TRPV1 protein expression in cardiac nerve endings from vehicle and RTX-treated rats using immunofluorescence. Experiments were performed on male Sprague-Dawley rats weighing […]. In brief, terminal experiments were carried out 9-11 weeks after MI in rats treated with either RTX or vehicle. These experiments were approved by the Institutional Animal Care and Use Committee of the University of Nebraska Medical Center and carried out under the guidelines of the National Institutes of Health Guide for the Care and Use of Laboratory Animals. Heart failure was produced by coronary artery ligation as described in (Wang et al., J. Appl. Physiol. 2010; 108:1365-1375; and Wang et al. 2, Am. J. Physiol. Regul. Integr. Comp. Physiol. 2012; 320:R1260-R1270). Cardiac function in all experimental animals was measured 2 and 6 weeks after MI by echocardiography (VEVO 770, Visual Sonics, Inc.) as described in (Wang et al., J. Appl. Physiol. 2010; 108:1365-1375; Wang et al. 2, Am. J. Physiol. Regul. Integr. Comp. Physiol. 2012; 320:R1260-R1270; and Wang et al. 3, J. Physiol. 2010; 588:5033-5047).
This example illustrates an effect of RTX on body weight, organ weight, and hemodynamics in sham and CHF rats.

[3] = tested on: nerve endings in the skin; conditions: topical administration at the nerve endings in the skin; cited from earlier work

C=C(C)[C@]12C[C@@H](C)[C@@]34O[C@](Cc5ccccc5)(O[C@@H]1[C@@H]3C=C(COC(=O)Cc1ccc(O)c(OC)c1)C[C@]1(O)C(=O)C(C)=C[C@@H]41)O2 [RTX, resiniferatoxin]
increased IL-1 β expression in peri-infarct and remote areas post MI (IL-1 β): markedly attenuated | increased IL-1 β level in the infarct area (IL-1 β): partially prevented | plasma extravasation following CSAR activation by epicardial capsaicin or bradykinin ([1]; chronic CSAR denervation by RTX): largely be abolished | cardiac plasma extravasation after MI (Evans Blue area) ([1]; epicardial RTX at the time of coronary ligation, day 1 to more than 1 week after MI): almost completely abolished | difference in ejection fraction or fractional shortening ([2]; 2 weeks and 6 weeks after MI, CHF+RTX vs CHF+vehicle): no significant difference | DAP ([2]; CHF + RTX (n = 25), mean ± SE): 90.8 ± 2.2 mmHg | Heart weight ([2]; CHF + RTX (n = 25), epicardial RTX 50 μg/ml at coronary ligation, 9-11 weeks post-MI, mean ± SE): 1650 ± 49 mg | HR ([2]; CHF + RTX (n = 25), mean ± SE): 348.3 ± 5.5 bpm | HW/BW ([2]; CHF + RTX (n = 25), mean ± SE): 3.8 ± 0.1 mg/g | LVEDP ([2]; CHF + RTX (n = 25), mean ± SE): 8.3 ± 0.7 mmHg | MAP ([2]; CHF + RTX (n = 25), mean ± SE): 101.3 ± 2.1 mmHg | Infarct size ([2]; CHF + RTX (n = 25), mean ± SE): 39.1 ± 1.2 % | dp/dtmax ([2]; CHF + RTX (n = 25), mean ± SE): 5446 ± 173 | dp/dtmin ([2]; CHF + RTX (n = 25), mean ± SE): −4643 ± 149 | SAP ([2]; CHF + RTX (n = 25), mean ± SE): 120.8 ± 2.3 mmHg | WLW/BW ([2]; CHF + RTX (n = 25), mean ± SE): 5.1 ± 0.2 mg/g | MI-induced cardiac dilation (LV systolic and diastolic diameters and volumes) ([2]; CHF rats, echocardiography): significantly reduced | increased LVEDP observed in CHF+vehicle rats ([2]; CHF+RTX rats): largely prevented | decreased protein expression of in myocardium ([2]; CHF+RTX rats, western blot): partially reversed | blunted dp/dtmin ([2]; CHF+RTX vs CHF+vehicle rats): significantly increased | difference in dp/dtmax at rest ([2]; CHF+RTX vs CHF+vehicle rats): no significant difference | dp/dtmax response to isoproterenol (ISO) stimulation ([2]; CHF+RTX vs CHF+vehicle rats): significantly greater | heart weight and lung weight-to-body weight ratios ([2]; CHF+RTX vs CHF+vehicle rats): significant decrease | difference in infarct size ([2]; CHF+vehicle vs CHF+RTX rats): no significant difference | ejection fraction decrease ([2]; RTX treated rats (summary)): less | Infarct size ([2]; Sham + RTX (n = 20)): 0% | DAP ([2]; Sham + RTX (n = 20), mean ± SE): 92.8 ± 3.2 mmHg | Heart weight ([2]; Sham + RTX (n = 20), epicardial RTX 50 μg/ml, 9-11 weeks, mean ± SE): 1430 ± 30 mg | HR ([2]; Sham + RTX (n = 20), mean ± SE): 362.0 ± 6.8 bpm | HW/BW ([2]; Sham + RTX (n = 20), mean ± SE): 3.3 ± 0.1 mg/g | LVEDP ([2]; Sham + RTX (n = 20), mean ± SE): 4.8 ± 0.4 mmHg | MAP ([2]; Sham + RTX (n = 20), mean ± SE): 105.0 ± 3.1 mmHg | dp/dtmax ([2]; Sham + RTX (n = 20), mean ± SE): 8601 ± 224 | dp/dtmin ([2]; Sham + RTX (n = 20), mean ± SE): −8088 ± 196 | SAP ([2]; Sham + RTX (n = 20), mean ± SE): 128.8 ± 2.8 mmHg | WLW/BW ([2]; Sham + RTX (n = 20), mean ± SE): 4.5 ± 0.1 mg/g | differences in cardiac morphological, echocardiographic or hemodynamic parameters ([2]; sham+vehicle vs sham+RTX rats): no significant differences | sensitivity to chemical pain stimulation [3]: long-lasting insensitivity
